Laboratory results from US8119681B2, “2-[1-phenyl-5-hydroxy or methoxy-4alpha-methyl-hexahydrocyclopenta [ƒ]indazole-5-YL]ethyl phenyl derivatives as glucocorticoid receptor ligands” (Merck Sharp & Dohme Corp., priority 2006, dated 2012).
pEC50: −log10 of the molar value.

Key:
human GR [1] = molecular target: T1, human GR (Homo sapiens, UniProt P04150); experiment: Transrepression Assay (GITAR), TNFα-β-lactamase reporter gene in U937 cells; format: cell-based; parameters: U937 cells contain an endogenous glucocorticoid receptor (GR); endogenous in cells; host or cells: U937 cells stably transfected with the TNF-α promoter/β-lactamase reporter only; settings: for pEC50: IP = inflection point; for GITAR > GRAMM % SEP: separation of GITAR Emax over GRAMMER Emax; for Emax: U-937
T1 sequence (P04150 1-777): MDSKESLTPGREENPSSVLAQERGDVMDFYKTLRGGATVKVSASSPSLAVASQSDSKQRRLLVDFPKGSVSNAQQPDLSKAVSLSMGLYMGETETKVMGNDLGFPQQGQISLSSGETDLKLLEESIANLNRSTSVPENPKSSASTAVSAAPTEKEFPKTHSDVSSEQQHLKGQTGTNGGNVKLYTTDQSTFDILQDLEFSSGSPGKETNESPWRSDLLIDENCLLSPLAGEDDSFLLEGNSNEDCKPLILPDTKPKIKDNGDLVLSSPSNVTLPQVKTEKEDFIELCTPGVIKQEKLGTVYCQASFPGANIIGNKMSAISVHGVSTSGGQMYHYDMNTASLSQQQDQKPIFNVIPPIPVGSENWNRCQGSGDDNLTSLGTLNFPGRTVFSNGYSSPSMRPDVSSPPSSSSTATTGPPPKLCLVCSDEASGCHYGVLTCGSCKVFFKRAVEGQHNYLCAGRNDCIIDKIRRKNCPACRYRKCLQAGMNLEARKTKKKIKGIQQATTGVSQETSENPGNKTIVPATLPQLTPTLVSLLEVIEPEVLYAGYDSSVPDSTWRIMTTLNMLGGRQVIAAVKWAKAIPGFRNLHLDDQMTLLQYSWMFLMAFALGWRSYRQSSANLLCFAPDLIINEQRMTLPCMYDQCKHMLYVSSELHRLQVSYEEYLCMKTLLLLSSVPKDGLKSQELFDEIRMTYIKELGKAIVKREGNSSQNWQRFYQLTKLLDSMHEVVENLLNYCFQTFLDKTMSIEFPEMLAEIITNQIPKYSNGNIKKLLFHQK
Summary of the method: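 Reporter readout used CCF2-AM loading for 70–90 min at room temperature after overnight (~18 h, 37 °C) PMA (5 ng/ml final) and LPS (100 ng/ml final) stimulation of compound-treated (30–45 min) TNFα-β-lactamase U937 cells expressing native GR. Activity was normalised to 100 nM dexamethasone repression.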

human GR [2] = molecular target: T1, human GR; experiment: Trans-Activation Modulation of Glucocorticoid Receptor (GRAMMER), MMTV-LUC reporter gene; format: cell-based; parameters: endogenous in cells; settings: for Emax: A549; for pEC50: A549 cells, IP = inflection point
Text: Trans-Activation Modulation of Glucocorticoid Receptor (GRAMMER)
This assay assesses the ability of test compounds to control transcription from the MMTV-LUC reporter gene in lung adenocarcinoma A549 cells or HeLa cells, a human […] cell line that naturally expresses the human GR. The assay measures induction of a modified MMTV LTR/promoter linked to the LUC reporter gene.
The routine transient assay consists of plating 7,000-25,000 cells/well of a white, clear-bottom 96-well plate. Alternatively, 384-well plates can be used at a cell concentration of 10,000/well. The media that the cells are plated in is “exponential growth medium” which consists of phenol red-free RPMI1640 containing 10% FBS, 4 mM L-glutamine, 20 mM HEPES, 10 ug/mL human insulin, and 20 ug/mL gentamicin. Incubator conditions are 37° C. and 5% CO2. The transfection is done in batch mode. The cells are trypsinized and counted to the right cell number in the proper amount of fresh media. It is then gently mixed with the FuGene6/DNA mix and plated onto the 96 or 384-well plate, all the wells receive 100 uL or 40 uL, respectively, of medium+lipid/DNA complex then incubated 37° C. overnight. The transfection cocktail consists of serum-free OptiMEM, FuGene6 reagent and DNA. The manufacturer's (Roche Biochemical) protocol for cocktail setup is as follows: The lipid to DNA ratio is approximately 2.5:1 and the incubation time is 20 min at room temperature. Sixteen to 24 hours after transfection, the cells are treated with dexamethasone to a final concentration of 10 nM as well as the compound of interest, such that final DMSO (vehicle) concentration is equal to or less than 1%. Each plate also contains samples that are treated with 10 nM dexamethasone alone, which is used as the 100% activity control. The cells are exposed to the compounds for 24 hours. After 24 hours, the cells are lysed by a Promega cell culture lysis buffer for approximately 30 min and then the luciferase activity in the extracts is assayed in the 96-well format luminometer. In 384-well format, Steady-Glo (Promega) or Steady-Lite (PerkinElmer) can be used by adding an equal volume of reagent to the media present in each well. Activity induced by 10 nM dexamethasone alone is set at 100% activity. Antagonist activity is calculated by determining the decrease in dexamethasone-induced activity in response to compound treatment relative to samples that were treated with dexamethasone alone. […] This transactivation assay can be performed in an agonist and antagonist mode to identify these different activities. […]

[3] = Table 1, U937 cells, read-out: Transrepression U937 Cells GITAR IP
[4] = 100 nM dexamethasone = 100% activity, read-out: maximal activity in the transrepression assay
[5] = Table 1, U937 cells, activity repressed by 100 nM dexamethasone = 100%, read-out: Transrepression U937 Cells GITAR Emax (%)
[6] = read-out: Transactivation A549 Cells GRAMMER Emax (%)
[7] = Table 1, read-out: Transactivation A549 Cells GRAMMER IP

SMILES | pEC50 (human GR [1]; Table 2, U937 cells, read-out: Transactiviation U937 Cells GITAR IP) | GITAR > GRAMM % SEP (human GR [1]; Table 2) | Emax (human GR [1]; Table 2, U937 cells, activity repressed by 100 nM dexamethasone = 100%, read-out: Transactiviation U937 Cells GITAR Emax (%)) | Emax (human GR [2]; read-out: Transactiviation A549 Cells GRAMMER Emax (%)) | pEC50 (human GR [2]; Table 2, read-out: Transactiviation A549 Cells GRAMMER IP) | pEC50 (human GR [1]; [3]) | GITAR > GRAMM % SEP (human GR [1]; Table 1) | Emax (human GR [1]; [4]) | Emax (human GR [1]; [5]) | Emax (human GR [2]; [6]) | pEC50 (human GR [2]; [7])
C[C@]12Cc3cnn(-c4ccc(F)cc4)c3C=C1CCC[C@@H]2[C@@H](O)Cc1ccccc1 [Example 22 WO 03/086294 A2, reference compound] | 6.49 | −14% | 71% | 85% | 6.96 |  |  |  |  |  | 
CNC(=O)Cc1ccccc1CC[C@]1(O)CCC2=Cc3c(cnn3-c3ccc(F)cc3)C[C@@]21C [Example 23, 2-(2-{2-[(4αS,5R)-1-(4-fluorophenyl)-5-hydroxy-4α-methyl-1,4,4α,5,6,7-hexahydrocyclopenta[f]indazol-5-yl]ethyl}phenyl)-N-methylacetamide] |  |  |  |  |  | 6.58 | 37% | 5 to 100% | 73% | 36% | 6.57
COC(=O)C1(NC(=O)c2ccccc2CC[C@]2(O)CCC3=Cc4c(cnn4-c4ccc(F)cc4)C[C@@]32C)CC1 [Example 26, methyl 1-[(2-{2-[(4αS,5R)-1-(4-fluorophenyl)-5-hydroxy-4α-methyl-1,4,4α,5,6,7-hexahydrocyclopenta[f]indazol-5-yl]ethyl}benzoyl)amino]cyclopropanecarboxylate] |  |  |  |  |  | 6.91 | 15% | 5 to 100% | 39% | 24% | 7.41
CC1(NC(=O)c2ccccc2CC[C@]2(O)CCC3=Cc4c(cnn4-c4ccc(F)cc4)C[C@@]32C)CC1 [Example 28, 2-{2-[(4αS,5R)-1-(4-fluorophenyl)-5-hydroxy-4α-methyl-1,4,4α,5,6,7-hexahydrocyclopenta[f]indazol-5-yl]ethyl}-N-(1-methylcyclopropyl)benzamide] |  |  |  |  |  | 7.19 | 43% | 5 to 100% | 72% | 28% | 7.32
CC(C)CNC(=O)c1ccccc1CC[C@]1(O)CCC2=Cc3c(cnn3-c3ccc(F)cc3)C[C@@]21C [Example 29, 2-{2-[(4αS,5R)-1-(4-fluorophenyl)-5-hydroxy-4α-methyl-1,4,4α,5,6,7-hexahydrocyclopenta[f]indazol-5-yl]ethyl}-N-isobutylbenzamide] |  |  |  |  |  | 6.72 | 37% | 5 to 100% | 61% | 24% | 7.02

The next lines start with the values.

pEC50 (human GR [1]; Table 2, U937 cells, read-out: Transactiviation U937 Cells GITAR IP) | GITAR > GRAMM % SEP (human GR [1]; Table 2) | Emax (human GR [1]; Table 2, U937 cells, activity repressed by 100 nM dexamethasone = 100%, read-out: Transactiviation U937 Cells GITAR Emax (%)) | Emax (human GR [2]; read-out: Transactiviation A549 Cells GRAMMER Emax (%)) | pEC50 (human GR [2]; Table 2, read-out: Transactiviation A549 Cells GRAMMER IP) | pEC50 (human GR [1]; [3]) | GITAR > GRAMM % SEP (human GR [1]; Table 1) | Emax (human GR [1]; [4]) | Emax (human GR [1]; [5]) | Emax (human GR [2]; [6]) | pEC50 (human GR [2]; [7]) | SMILES
 |  |  |  |  | 6.90 | 21% | 5 to 100% | 50% | 29% | 7.09 | CCCNC(=O)c1ccccc1CC[C@]1(O)CCC2=Cc3c(cnn3-c3ccc(F)cc3)C[C@@]21C [Example 30, 2-{2-[(4αS,5R)-1-(4-fluorophenyl)-5-hydroxy-4α-methyl-1,4,4α,5,6,7-hexahydrocyclopenta[f]indazol-5-yl]ethyl}-N-propylbenzamide]
 |  |  |  |  | 6.74 | 39% | 5 to 100% | 48% | 9% | 7.03 | CC(CNC(=O)c1ccccc1CC[C@]1(O)CCC2=Cc3c(cnn3-c3ccc(F)cc3)C[C@@]21C)C(F)(F)F (stereo partly drawn) [Example 31, 2-{2-[(4αS,5R)-1-(4-fluorophenyl)-5-hydroxy-4α-methyl-1,4,4α,5,6,7-hexahydrocyclopenta[f]indazol-5-yl]ethyl}-N-(3,3,3-trifluoro-2-methylpropyl)benzamide]
 |  |  |  |  | 6.56 | 36% | 5 to 100% | 49% | 13% | 6.87 | C=C(C)CNC(=O)c1ccccc1CC[C@]1(O)CCC2=Cc3c(cnn3-c3ccc(F)cc3)C[C@@]21C [Example 32, 2-{2-[(4αS,5R)-1-(4-fluorophenyl)-5-hydroxy-4α-methyl-1,4,4α,5,6,7-hexahydrocyclopenta[f]indazol-5-yl]ethyl}-N-(2-methylprop-2-en-1-yl)benzamide]
 |  |  |  |  | 6.91 | 25% | 5 to 100% | 62% | 37% | 7.21 | C=CCNC(=O)c1ccccc1CC[C@]1(O)CCC2=Cc3c(cnn3-c3ccc(F)cc3)C[C@@]21C [Example 33, N-allyl-2-{2-[(4αS,5R)-1-(4-fluorophenyl)-5-hydroxy-4α-methyl-1,4,4α,5,6,7-hexahydrocyclopenta[f]indazol-5-yl]ethyl}benzamide]
 |  |  |  |  | 6.68 | 41% | 5 to 100% | 54% | 13% | 6.89 | CC1(NC(=O)c2ccccc2CC[C@]2(O)CCC3=Cc4c(cnn4-c4ccccc4)C[C@@]32C)CC1 [Example 34, 2-{2-[(4αS,5R)-5-hydroxy-4α-methyl-1-phenyl-1,4,4α,5,6,7-hexahydrocyclopenta[f]indazol-5-yl]ethyl}-N-(1-methylcyclopropyl)benzamide]
 |  |  |  |  | 6.77 | 14% | 5 to 100% | 62% | 48% | 7.22 | CC(C)NC(=O)c1ccccc1CC[C@]1(O)CCC2=Cc3c(cnn3-c3ccc(F)cc3)C[C@@]21C [Example 35, 2-{2-[(4αS,5R)-1-(4-fluorophenyl)-5-hydroxy-4α-methyl-1,4,4α,5,6,7-hexahydrocyclopenta[f]indazol-5-yl]ethyl}-N-isopropylbenzamide]
 |  |  |  |  | 7.09 | 1% | 5 to 100% | 58% | 57% | 7.19 | C[C@]12Cc3cnn(-c4ccc(F)cc4)c3C=C1CC[C@@]2(O)CCc1ccccc1C(=O)NCC1CC1 [Example 37, N-(cyclopropylmethyl)-2-{2-[(4αS,5R)-1-(4-fluorophenyl)-5-hydroxy-4α-methyl-1,4,4α,5,6,7-hexahydrocyclopenta[r]indazol-5-yl]ethyl}benzamide]
